Measurements as given in US10077261B2, “Imidazolin-5-one derivative useful as FASN inhibitors for the treatment of cancer” (Janssen Pharmaceutica NV, priority 2012, dated 2018).

Target: T1, hFASN enzyme (full length) (Homo sapiens, UniProt P49327)
T1 construct: 10 μL hFASN enzyme (full length, 300 ng, purified in house); made in house
Test: Fatty Acid Synthase (FASN) inhibition scintillation proximity assay
Assay type: biochemical
Details: for inhibition at 10 µM: read-out: Human FASN % inhibition @ 10 μM, 10 μM test compound; for IC50: read-out: Human FASN pIC50 (converted)
Protocol: In this assay, inhibition of FASN activity is measured using ^3H-acetyl-CoA and malonyl-CoA as substrates. ^3H-Acetyl CoA is converted to ^3H-palmitate through a series of reactions by the FASN protein, which contains 7 functional domains and carries out 7 enzymatic reactions to ultimately produce ^3H-palmitate. The assay principle is based upon the fact that ^3H-acetyl-CoA is hydrophilic and the end product, ^3H-palmitate is hydrophobic.
10 μL assay buffer (100 mM KH2PO4 pH 7.5, 1 mM DTT) (20 μL in blanks) was added to a 384-well white optiplate plate (Perkin Elmer). 0.9 μL test compound (at concentrations of 30 μM, 10 μM, 3 μM, 1 μM, 0.30 μM, 0.10 μM, 0.03 μM and 0.01 μM)/DMSO and 10 μL hFASN enzyme (full length, 300 ng, purified in house) or 10 μL assay buffer was added to the wells. […] The reaction was stopped by adding 20 μL Streptavidin coupled imaging beads (25 mg/ml). After incubation for 30 minutes at room temperature in the dark, the 384 well plate was centrifuged at 1500 rpm for 3 minutes and was measured after at least 24 hrs by the LEADseeker™, measuring emission using a 610±20 nm pass filter.
where mLC and mHC were the means of the low control wells and high control wells on the plate, after manual exclusion of outliers. A plot of Controlmin versus test compound concentration was fitted to a 4-parameter logistic curve using a non-linear least squares regression method.

T1 sequence (P49327 whole entry): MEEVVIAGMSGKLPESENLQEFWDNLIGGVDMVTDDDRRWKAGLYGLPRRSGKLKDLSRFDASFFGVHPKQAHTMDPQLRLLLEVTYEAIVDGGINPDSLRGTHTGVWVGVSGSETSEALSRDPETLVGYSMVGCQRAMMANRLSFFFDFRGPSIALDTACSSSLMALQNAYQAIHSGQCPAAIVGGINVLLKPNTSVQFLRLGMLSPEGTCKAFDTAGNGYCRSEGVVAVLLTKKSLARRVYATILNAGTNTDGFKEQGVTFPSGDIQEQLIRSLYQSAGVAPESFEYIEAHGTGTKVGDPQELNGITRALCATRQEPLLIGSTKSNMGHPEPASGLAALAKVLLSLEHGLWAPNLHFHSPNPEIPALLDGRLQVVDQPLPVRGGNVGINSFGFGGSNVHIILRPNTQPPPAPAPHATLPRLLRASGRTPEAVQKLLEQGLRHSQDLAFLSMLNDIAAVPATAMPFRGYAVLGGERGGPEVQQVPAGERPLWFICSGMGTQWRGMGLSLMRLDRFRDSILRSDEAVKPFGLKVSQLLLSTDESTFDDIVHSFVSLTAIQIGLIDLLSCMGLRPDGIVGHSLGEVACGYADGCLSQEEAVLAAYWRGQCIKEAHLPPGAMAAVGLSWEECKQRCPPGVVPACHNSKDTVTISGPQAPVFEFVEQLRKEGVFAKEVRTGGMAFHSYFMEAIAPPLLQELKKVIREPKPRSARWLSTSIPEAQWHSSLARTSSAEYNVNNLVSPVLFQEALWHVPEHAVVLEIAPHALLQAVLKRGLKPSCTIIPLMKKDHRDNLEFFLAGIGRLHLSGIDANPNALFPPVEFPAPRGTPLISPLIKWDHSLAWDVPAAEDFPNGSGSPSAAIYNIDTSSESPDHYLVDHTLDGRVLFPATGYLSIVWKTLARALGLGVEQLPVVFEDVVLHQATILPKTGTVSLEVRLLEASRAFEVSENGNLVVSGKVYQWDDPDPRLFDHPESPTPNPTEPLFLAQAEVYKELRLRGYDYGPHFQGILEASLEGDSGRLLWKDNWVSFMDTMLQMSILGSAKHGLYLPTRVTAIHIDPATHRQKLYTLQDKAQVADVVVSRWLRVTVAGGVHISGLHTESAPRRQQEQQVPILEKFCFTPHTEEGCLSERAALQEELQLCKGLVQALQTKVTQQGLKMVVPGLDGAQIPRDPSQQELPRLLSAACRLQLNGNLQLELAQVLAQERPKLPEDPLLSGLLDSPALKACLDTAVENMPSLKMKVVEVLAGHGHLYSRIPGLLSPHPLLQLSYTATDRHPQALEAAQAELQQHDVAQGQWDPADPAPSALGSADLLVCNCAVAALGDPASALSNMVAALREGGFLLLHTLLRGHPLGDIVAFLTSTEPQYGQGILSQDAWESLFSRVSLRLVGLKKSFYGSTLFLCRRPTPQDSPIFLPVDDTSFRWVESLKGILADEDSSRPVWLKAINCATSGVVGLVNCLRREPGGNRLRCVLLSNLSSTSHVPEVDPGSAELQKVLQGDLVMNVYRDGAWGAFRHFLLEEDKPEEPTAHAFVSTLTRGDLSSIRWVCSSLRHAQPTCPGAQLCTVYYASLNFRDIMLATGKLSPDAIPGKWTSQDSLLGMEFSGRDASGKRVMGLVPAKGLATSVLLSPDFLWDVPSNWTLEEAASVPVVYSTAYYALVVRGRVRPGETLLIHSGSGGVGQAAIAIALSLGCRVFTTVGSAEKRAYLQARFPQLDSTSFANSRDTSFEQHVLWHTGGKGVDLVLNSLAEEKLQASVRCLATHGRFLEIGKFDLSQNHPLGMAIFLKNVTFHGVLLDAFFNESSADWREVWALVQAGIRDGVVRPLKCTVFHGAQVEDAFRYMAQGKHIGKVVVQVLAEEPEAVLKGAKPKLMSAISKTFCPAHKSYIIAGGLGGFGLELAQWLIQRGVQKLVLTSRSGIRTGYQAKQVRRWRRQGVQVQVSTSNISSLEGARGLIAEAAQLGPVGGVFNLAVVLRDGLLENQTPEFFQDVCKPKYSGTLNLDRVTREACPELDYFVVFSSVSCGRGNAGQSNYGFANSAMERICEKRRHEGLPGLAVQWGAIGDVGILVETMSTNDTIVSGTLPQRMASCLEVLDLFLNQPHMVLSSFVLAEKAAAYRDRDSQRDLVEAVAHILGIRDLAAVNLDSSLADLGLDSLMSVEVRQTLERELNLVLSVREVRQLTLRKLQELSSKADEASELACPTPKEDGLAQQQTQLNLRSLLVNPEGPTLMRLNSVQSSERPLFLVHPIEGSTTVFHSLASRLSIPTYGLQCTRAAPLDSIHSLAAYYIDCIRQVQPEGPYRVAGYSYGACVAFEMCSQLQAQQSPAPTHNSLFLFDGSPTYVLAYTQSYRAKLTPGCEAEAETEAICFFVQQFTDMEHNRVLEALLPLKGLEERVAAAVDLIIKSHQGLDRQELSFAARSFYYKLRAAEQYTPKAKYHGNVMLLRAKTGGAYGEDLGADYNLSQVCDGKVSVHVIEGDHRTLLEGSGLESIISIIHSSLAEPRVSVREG

Compound	inhibition at 10 µM [%]	IC50 [µM]
CC(C)C(=O)N1CCC2(CC1)N=C(c1ccc(-c3ccc4cnccc4c3)cc1)N(C[C@@H]1CCN(C(=O)C3CC3)C1)C2=O [compound 143, 3-{[(3R)-1-(Cyclopropylcarbonyl)pyrrolidin-3-yl]methyl}-2-(4-isoquinolin-6-ylphenyl)-8-(2-methylpropanoyl)-1,3,8-triazaspiro[4.5]dec-1-en-4-one]	119	0.0363
Cn1nccc1-c1ccc(C2=NC3(CC3)C(=O)N2CC2CN(C(=O)C3CC3)C2)cc1 [compound 43, 6-{[1-(Cyclopropylcarbonyl)azetidin-3-yl]methyl}-5-[4-(1-methyl-1H-pyrazol-5-yl)phenyl]-4,6-diazaspiro[2.4]hept-4-en-7-one]	45.4	~10
CN(C)CC(=O)N1CCC2(CC1)N=C(c1ccc(-c3ccc4c(cnn4C)c3)cc1)N(CC1CN(C(=O)C3CC3)C1)C2=O [compound 136, 3-{[1-(Cyclopropylcarbonyl)azetidin-3-yl]methyl}-8-(N,N-dimethylglycyl)-2-[4-(1-methyl-1H-indazol-5-yl)phenyl]-1,3,8-triazaspiro[4.5]dec-1-en-4-one]	77.7	2.95
Cc1sc2ccc(-c3ccc(C4=NC5(CCN(C(=O)C(C)C)CC5)C(=O)N4C[C@@H]4CCN(C(=O)C5CC5)C4)cc3)cc2c1C [compound 183, 3-{[(3R)-1-(Cyclopropylcarbonyl)pyrrolidin-3-yl]methyl}-2-[4-(2,3-dimethyl-1-benzothiophen-5-yl)phenyl]-8-(2-methylpropanoyl)-1,3,8-triazaspiro[4.5]dec-1-en-4-one]	109	0.138
O=C(C1CC1)N1CC(CN2C(=O)C3(CCN(CCO)CC3)N=C2c2ccc(-c3ccc4[nH]ncc4c3)cc2)C1 [compound 758, 3-{[1-(Cyclopropylcarbonyl)azetidin-3-yl]methyl}-8-(2-hydroxyethyl)-2-[4-(1H-indazol-5-yl)phenyl]-1,3,8-triazaspiro[4.5]dec-1-en-4-one]	71	3.39
Cn1ncc2cc(-c3ccc(C4=NC5(CCOC5)C(=O)N4C[C@@H]4CCN(C(=O)c5nccs5)C4)cc3)ccc21 (stereo partly drawn) [compound 892, 2-(4-(1-methyl-1H-indazol-5-yl)phenyl)-3-(((R)-1-(thiazole-2-carbonyl)pyrrolidin-3-yl)methyl)-7-oxa-1,3-diazxaspiro[4.4]non-1-en-4-one]	-29	> 10
O=C(C1CC1)N1CC(CN2C(=O)C3(CCOC3)N=C2c2ccc(-c3ccc4occc4c3)cc2)C1 (centres unmarked) [compound 718, 2-[4-(1-Benzofuran-5-yl)phenyl]-3-{[1-(cyclopropylcarbonyl)azetidin-3-yl]methyl}-7-oxa-1,3-diazaspiro[4.4]non-1-en-4-one]	72	~2.4
Cn1cc(-c2ccc(-c3ccc(C4=NC5(CCOCC5)C(=O)N4CC4CN(C(=O)N5CCCC5)C4)cc3)cc2)cn1 [compound 697, 2-[4′-(1-Methyl-1H-pyrazol-4-yl)biphenyl-4-yl]-3-{[1-(pyrrolidin-1-ylcarbonyl)azetidin-3-yl]methyl}-8-oxa-1,3-diazaspiro[4.5]dec-1-en-4-one]	58	5.89
CC(O)C(=O)N1CC(CN2C(=O)C3(CCOCC3)N=C2c2ccc(-c3ccc4occc4c3)cc2)C1 (centres unmarked) [compound 703, 2-[4-(1-Benzofuran-5-yl)phenyl]-3-{[1-(2-hydroxypropanoyl)azetidin-3-yl]methyl}-8-oxa-1,3-diazaspiro[4.5]dec-1-en-4-one]	61	4.47
O=C(C1CC1)N1CCC(CN2C(=O)C3(CC3)N=C2c2ccc(-c3ccc(C(F)(F)F)cc3)cc2)CC1 [compound 107, 6-{[1-(Cyclopropylcarbonyl)piperidin-4-yl]methyl}-5-[4′-(trifluoromethyl)biphenyl-4-yl]-4,6-diazaspiro[2.4]hept-4-en-7-one]	10.6	> 10
